Patent US10065990B2, “Cyclic peptide compound, and preparation method, pharmaceutical composition and use thereof” (HANGZHOU GUANYU BIO-MEDICAL CO., LTD, priority 2013, dated 2018)
Read-outs that look alike come from different tables or passages of the source.

Tests used:
[1] = tested on: MDA-MB-231 (breast cancer cells); assay: MTT cancer cell growth inhibition; assay type: cell-based; conditions: Homo sapiens, MDA-MB-231, 72 h, read-out: GI50 MDA-MB-231, MTT, 72 hours incubation, MDA-MB-231 cells
Text: (§1) MTT assay principle is yellow MTT can penetrate membrane into the cell, succinic dehydrogenase of the mitochondria in living cells can make exogenous MTT reduction of insoluble in water of blue-violet acicular formazan for crystallization and deposition in the cell, crystallization can be dissolved dimethyl sulfoxide (DMSO) solution, detected its absorbance at 490 nm/570 nm wavelength by enzyme-linked immunosorbent assay, which can reflect the number of cells.
(§2) Using DMEM+10% FBS culture medium or using 1640+10% FBS culture, respectively.
(§3) a) Cells were seeded in 96-well plates with the inoculation of 1500/well, 190 μl/hole, 37° C., 5% of CO2 incubator overnight;
(§4) b) The next day each well was added 10 μl of different drugs. The final concentration of drug was 10^−5˜10^−10M, three parallel holes; 37° C., 5% CO2 culture incubator for 72 hours incubation;
(§5) c) Per well was added 20 μl 5 mg/ml of MTT, 37° C., 5% CO2 culture incubator for 4 hours incubation;
(§6) d) The supernatant was discarded. Each well was added 100 μl of DMSO and oscillation;
(§7) e) 570 nm readings. Calculate cell viability. GI50 calculation based on the results.

[2] = tested on: N-87 (human gastric cancer cells); assay: MTT cancer cell growth inhibition; assay type: cell-based; conditions: Homo sapiens, 72 h, MTT, 72 hours incubation, N-87 cells; read-out: GI50 N-87
Text: as §1, §2, §3, §4, §5, §6, §7

[3] = tested on: lncap (prostate cancer cells); assay: MTT cancer cell growth inhibition; assay type: cell-based; conditions: Homo sapiens, LNCaP, 72 h, MTT, 72 hours incubation, read-out: GI50 lnca
Text: as §1, §2, §3, §4, §5, §6, §7

[4] = tested on: H1975 (non-small cell lung adenocarcinoma); assay: MTT cancer cell growth inhibition; assay type: cell-based; conditions: Homo sapiens, NCI-H1975, 72 h, MTT, 72 hours incubation, H1975 cells; read-out: GI50 H1975
Text: as §1, §2, §3, §4, §5, §6, §7

[5] = tested on: DU145 (human prostate cancer cells); assay: MTT cancer cell growth inhibition; assay type: cell-based; conditions: Homo sapiens, DU-145, 72 h, MTT, 72 hours incubation, read-out: GI50 Du1
Text: as §1, §2, §3, §4, §5, §6, §7

[6] = tested on: Bel-7402 (human hepatoma cells); assay: MTT cancer cell growth inhibition; assay type: cell-based; conditions: Homo sapiens, Bel-7402, 72 h, MTT, 72 hours incubation, Bel-7402 cells; read-out: GI50 Bel-7402
Text: as §1, §2, §3, §4, §5, §6, §7

[7] = tested on: PANC-1 (Pac-1, human pancreatic cancer cells); assay: MTT cancer cell growth inhibition; assay type: cell-based; conditions: Homo sapiens, PANC-1, 72 h, MTT, 72 hours incubation, read-out: GI50 PAN
Text: as §1, §2, §3, §4, §5, §6, §7

[8] = tested on: MOLT-4 (human acute lymphoblastic leukemia cells); assay: MTT cancer cell growth inhibition; assay type: cell-based; conditions: Homo sapiens, MOLT-4, 72 h, MTT, 72 hours incubation, read-out: GI50 Mol
Text: as §1, §2, §3, §4, §5, §6, §7

[9] = tested on: U937 (human leukemia cells); assay: MTT cancer cell growth inhibition; assay type: cell-based; conditions: Homo sapiens, U-937, 72 h, MTT, 72 hours incubation, read-out: GI50 U93
Text: as §1, §2, §3, §4, §5, §6, §7

[10] = tested on: SGC-7901 (human gastric cancer cells); assay: MTT cancer cell growth inhibition; assay type: cell-based; conditions: Homo sapiens, SGC-7901, 72 h, MTT, 72 hours incubation, SGC-7901 cells; read-out: GI50 SGC-7901
Text: as §1, §2, §3, §4, §5, §6, §7

[11] = tested on: BGC-823 (human gastric cancer cells); assay: MTT cancer cell growth inhibition; assay type: cell-based; conditions: Homo sapiens, BGC-823, 72 h, MTT, 72 hours incubation, read-out: GI50 BG
Text: as §1, §2, §3, §4, §5, §6, §7

[12] = tested on: K562 (human leukemia cells); assay: MTT cancer cell growth inhibition; assay type: cell-based; conditions: Homo sapiens, K562, 72 h, MTT, 72 hours incubation, K562 cells; read-out: GI50 K562
Text: as §1, §2, §3, §4, §5, §6, §7

[13] = tested on: A549 (human lung cancer cells); assay: MTT cancer cell growth inhibition; assay type: cell-based; conditions: Homo sapiens, A549, 72 h, MTT, 72 hours incubation, read-out: GI50 A54
Text: as §1, §2, §3, §4, §5, §6, §7

[14] = tested on: HCC827 (human non-small cell lung cancer cells); assay: MTT cancer cell growth inhibition; assay type: cell-based; conditions: Homo sapiens, HCC827, 72 h, MTT, 72 hours incubation, HCC827 cells; read-out: GI50 HCC827
Text: as §1, §2, §3, §4, §5, §6, §7

[15] = tested on: Huh-7 (human hepatoma cells); assay: MTT cancer cell growth inhibition; assay type: cell-based; conditions: Homo sapiens, Huh-7, 72 h, MTT, 72 hours incubation, Huh-7 cells; read-out: GI50 Huh-7
Text: as §1, §2, §3, §4, §5, §6, §7

[16] = tested on: HT1080 (human fibrosarcoma cells); assay: MTT cancer cell growth inhibition; assay type: cell-based; conditions: Homo sapiens, HT-1080, 72 h, MTT, 72 hours incubation, read-out: GI50 HT1
Text: as §1, §2, §3, §4, §5, §6, §7

[17] = tested on: Hela (human cervical cancer cells); assay: MTT cancer cell growth inhibition; assay type: cell-based; conditions: Homo sapiens, HeLa, 72 h, MTT, 72 hours incubation, read-out: GI50 Hela
Text: as §1, §2, §3, §4, §5, §6, §7

[18] = tested on: MCF-7 (human breast cancer cells); assay: MTT cancer cell growth inhibition; assay type: cell-based; conditions: Homo sapiens, MCF7, 72 h, 72 hours incubation, read-out: GI50 MCF
Text: as §1, §2, §3, §4, §5, §6, §7

[19] = tested on: KBM5-T315I (human chronic myelogenous leukemia); assay: MTT cancer cell growth inhibition; assay type: cell-based; conditions: Homo sapiens, 72 h, MTT, 72 hours incubation, KBM5-T315I cells; read-out: GI50 KBM5-T315I
Text: as §1, §2, §3, §4, §5, §6, §7

[20] = tested on: KBM-5 (human chronic myelogenous leukemia); assay: MTT cancer cell growth inhibition; assay type: cell-based; conditions: Homo sapiens, KBM5, 72 h, MTT, 72 hours incubation, KBM-5 cells; read-out: GI50 KBM-5
Text: as §1, §2, §3, §4, §5, §6, §7

HDAC7 = target: T1, HDAC7 (Homo sapiens, UniProt Q8WUI4); assay: HDAC biochemical activity measurement (fluorescent substrate deacetylation);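 note: fluorogenic deacetylation assay using acetyl-lysine substrate at 20 µM, enzyme and compound incubated 30 min at 37 °C, then developer added, fluorescence read at 360/460 nm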; conditions: HDAC7; 37° C. 30 minutes
T1 sequence (Q8WUI4 1-952): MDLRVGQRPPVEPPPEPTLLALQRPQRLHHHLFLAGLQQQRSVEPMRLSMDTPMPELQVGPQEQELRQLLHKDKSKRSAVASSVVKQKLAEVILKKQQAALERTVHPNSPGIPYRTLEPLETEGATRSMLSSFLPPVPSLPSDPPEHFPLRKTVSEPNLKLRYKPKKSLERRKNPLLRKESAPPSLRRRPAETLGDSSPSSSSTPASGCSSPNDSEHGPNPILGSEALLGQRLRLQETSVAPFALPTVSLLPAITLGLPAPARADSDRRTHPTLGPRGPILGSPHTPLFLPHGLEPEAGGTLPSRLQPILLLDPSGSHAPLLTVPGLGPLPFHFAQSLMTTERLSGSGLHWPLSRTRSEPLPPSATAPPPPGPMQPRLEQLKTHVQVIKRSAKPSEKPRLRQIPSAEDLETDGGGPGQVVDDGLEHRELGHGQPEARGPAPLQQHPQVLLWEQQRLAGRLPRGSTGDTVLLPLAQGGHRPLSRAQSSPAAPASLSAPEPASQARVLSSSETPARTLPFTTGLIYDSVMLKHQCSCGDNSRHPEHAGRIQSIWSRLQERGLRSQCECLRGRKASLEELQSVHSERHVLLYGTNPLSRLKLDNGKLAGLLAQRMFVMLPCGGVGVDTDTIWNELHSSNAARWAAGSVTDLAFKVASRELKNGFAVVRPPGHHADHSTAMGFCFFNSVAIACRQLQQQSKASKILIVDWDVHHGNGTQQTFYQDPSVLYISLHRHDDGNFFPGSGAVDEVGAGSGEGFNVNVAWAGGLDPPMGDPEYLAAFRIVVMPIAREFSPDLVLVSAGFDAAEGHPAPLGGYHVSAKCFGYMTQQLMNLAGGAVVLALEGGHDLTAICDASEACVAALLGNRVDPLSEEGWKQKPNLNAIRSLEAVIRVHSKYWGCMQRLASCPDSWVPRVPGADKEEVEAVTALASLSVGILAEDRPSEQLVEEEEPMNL

Compound | GI50 [1] [nM] | GI50 [2] [nM] | GI50 ([3]; lncap cells) [nM] | GI50 [4] [nM] | GI50 ([5]; DU145 cells) [nM] | GI50 [6] [nM] | GI50 ([7]; PANC-1 cells) [nM] | GI50 ([8]; MOLT-4 cells) [nM] | GI50 ([9]; U937 cells) [nM] | GI50 [10] [nM] | GI50 ([11]; BGC-823 cells) [nM] | GI50 [12] [nM] | GI50 ([13]; A549 cells) [nM] | GI50 [14] [nM] | GI50 [15] [nM] | GI50 ([16]; HT1080 cells) [nM] | GI50 ([17]; Hela cells) [nM] | GI50 [19] [nM] | GI50 [20] [nM] | IC50 HDAC7 (HDAC7) | also measured
C/C=C1\NC(=O)c2ccc(SC)c(n2)CNC(=O)C[C@@H](/C=C/CCSC(=O)CCCCC)OC(=O)[C@H](C(C)C)NC1=O [Compound 155] | 11 | 32 | 40 | 23 | 50 | 41 | 40 | 90 | 40 | 33 | 40 | 75 | 40 | 23 | 38 | 90 | 40 | 56 | 35 | no activity | GI50 ([18]; MCF-7 cells): 50 nM
C/C=C1\NC(=O)c2ccc(F)c(n2)CNC(=O)C[C@@H](/C=C/CCS)OC(=O)[C@H](C(C)C)NC1=O [Compound 108] | 49 | 34 | – | 33 | – | 76 | – | – | – | 36 | – | 59 | – | 93 | 43 | – | – | 24 | 11 | no activity | GI50 [3]: 20 nM; GI50 [5]: 20 nM; GI50 [7]: 80 nM; GI50 [8]: 20 nM; GI50 [9]: 30 nM; GI50 [11]: 20 nM; GI50 [13]: 40 nM; GI50 [16]: 80 nM; GI50 [17]: 70 nM; GI50 [18]: 30 nM
C/C=C1\NC(=O)c2ccc(SC)c(n2)CNC(=O)C[C@@H](/C=C/CCSC(C)=O)OC(=O)[C@H](CCCCNC(=O)OCC2c3ccccc3-c3ccccc32)NC1=O [Compound 197] | 16 | 28 | 30 | 45 | 50 | 52 | 40 | 40 | 80 | 43 | 40 | 49 | 60 | 71 | 76 | 50 | 70 | 21 | 86 | no activity | GI50 ([18]; MCF-7 cells): 50 nM
C=C1NC(=O)c2cccc(n2)CNC(=O)C[C@@H](/C=C/CCS)OC(=O)[C@H](C)NC1=O [Compound 139] | 67 | 25 | – | 15 | – | 43 | – | – | – | 57 | – | 47 | – | 34 | 51 | – | – | 21 | 69 | no activity | GI50 [3]: 190 nM; GI50 [5]: 80 nM; GI50 [7]: 70 nM; GI50 [8]: 90 nM; GI50 [9]: 50 nM; GI50 [11]: 60 nM; GI50 [13]: 50 nM; GI50 [16]: 70 nM; GI50 [17]: 70 nM; GI50 [18]: 10 nM
